“And” between values parts separate entries of the source, which are not always exact repeats. Equal entries are not always repeated. ± gives the expanded uncertainty stated by the source.
Conditions: Crystal, Calculated from knudsen effusion weight loss

O=[N+]([O-])c1cc(Br)ccc1Br [1,4-dibromo-2-nitrobenzene]
Conditions	vapor or sublimation pressure
302.14 K	9.9e-05 ± 5e-06 kPa and 9.7e-05 ± 5e-06 kPa
304.16 K	0.000121 ± 6e-06 kPa and 0.000125 ± 6e-06 kPa and 0.000123 ± 6e-06 kPa
306.15 K	0.000167 ± 8e-06 kPa and 0.000166 ± 8e-06 kPa and 0.000163 ± 8e-06 kPa
308.15 K	0.000204 ± 1e-05 kPa and 0.000205 ± 1e-05 kPa and 0.000203 ± 1e-05 kPa
310.14 K	0.00026 ± 1.3e-05 kPa and 0.000264 ± 1.3e-05 kPa and 0.000261 ± 1.3e-05 kPa
312.14 K	0.000327 ± 1.6e-05 kPa and 0.000332 ± 1.7e-05 kPa and 0.000329 ± 1.6e-05 kPa
314.14 K	0.000418 ± 2.1e-05 kPa and 0.000419 ± 2.1e-05 kPa
316.14 K	0.000522 ± 2.6e-05 kPa and 0.000527 ± 2.6e-05 kPa and 0.000524 ± 2.6e-05 kPa
318.15 K	0.000666 ± 3.3e-05 kPa and 0.000675 ± 3.4e-05 kPa and 0.000673 ± 3.4e-05 kPa
320.15 K	0.000884 ± 4.4e-05 kPa and 0.000858 ± 4.3e-05 kPa and 0.000838 ± 4.2e-05 kPa
322.14 K	0.001072 ± 0.00011 kPa and 0.001068 ± 0.00011 kPa and 0.001063 ± 0.00011 kPa
